Measurements from PMC10302187, “WssI from the Gram-negative bacterial cellulose synthase is an O-acetyltransferase that acts on cello-oligomers with several acetyl donor substrates” (The Journal of Biological Chemistry, 2023).

Legend:
AiWssI^ΔN [1] = target: T1, AiWssI^ΔN (Achromobacter insuavis, UniProt A0A6J5I893); format: biochemical; details: 1 h incubation with reagent (1 mM PMSF, 5 mM MSF, 5 mM EDTA, 0.1 mM E-64, 20 μM Pepstatin A); 6 mM pNP-Ac, pH 7
Procedure: (§1) The enzymatic rate of the WssI^ΔN proteins was measured using chromogenic assays in a 50 mM sodium phosphate-buffered (pH 7) solution, with WssI^ΔN (3 μM unless specified otherwise) and were initiated by the addition of pNP-Ac to a final concentration of 6 mM (dissolved in 5% [v/v] ethanol). Assay samples and corresponding controls (i.e., containing no WssI^ΔN and/or substrate) were run in quadruplicate, and the progress of the reaction was monitored at 405 nm (Cytation5) for 30 min in 1 min intervals following a 5 s initial linear shake to mix contents thoroughly. These conditions were deemed standard assay conditions for subsequent trials except where modifications are noted. The activity assay to determine optimal pH and buffer type was performed with 2-(N-morpholino)ethanesulfonic acid over pH ranges of 5.5 to 6.5, sodium phosphate for pH 6.5 to 7.5, and Tris for the final range of 7.5 to 9.25. In addition, standard assay conditions were modified by incorporating various inhibitors and common reducing agents to determine effects on WssI^ΔN activity. […] To test the effects of the absence of DTT, trials were conducted where DTT was removed from all purification and dialysis buffers, unless mentioned otherwise. Data are either reported in specific activity as units of esterase activity (i.e., the amount of enzyme required to release 1 μmol of p-nitrophenol per min^−1 per mg of protein^−1) or as percent residual activity when compared with the WssI^ΔN controls (i.e., containing no inhibitors).

PfWssI^ΔN = target: T2, PfWssI^ΔN (Pseudomonas fluorescens, UniProt Q8RSY4); format: biochemical; details: 1 h incubation with reagent (1 mM PMSF, 5 mM MSF, 5 mM EDTA, 0.1 mM E-64, 20 μM Pepstatin A); 6 mM pNP-Ac, pH 7
T2 sequence (Q8RSY4 92-374): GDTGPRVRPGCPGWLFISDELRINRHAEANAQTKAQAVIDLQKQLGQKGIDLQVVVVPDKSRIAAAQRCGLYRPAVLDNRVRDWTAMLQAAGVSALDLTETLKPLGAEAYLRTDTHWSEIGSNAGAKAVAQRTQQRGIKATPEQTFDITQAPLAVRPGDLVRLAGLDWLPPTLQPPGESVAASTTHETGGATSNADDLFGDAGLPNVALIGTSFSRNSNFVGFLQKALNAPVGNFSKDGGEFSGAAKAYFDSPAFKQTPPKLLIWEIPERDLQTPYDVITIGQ
Procedure: as §1

AiWssI^ΔN [2] = target: T1, AiWssI^ΔN; assay: HTS MU-Ac fluorescence esterase dose-response assay; format: biochemical; details: MU-Ac as esterase substrate
Procedure: Large-scale HTS was conducted at the SPARC BioCentre Drug Discovery (Hospital for Sick Children, Toronto, Canada) with a subset of the Chembridge DIVERset library collection (as well as 135 manually selected compounds based on success against other SGNH enzymes) in a 384-well format. The assay was performed in singlet during the primary screen of the entire compound list and in triplicate for a follow-up confirmatory screen. Reaction setups for both screens were conducted with 50 mM sodium phosphate buffer (pH 6.5), 3 μM AiWssI^ΔN and 0.5 mM MU-Ac (final concentration of 5% [v/v] dimethyl sulfoxide) using a Thermo MultiDrop Combi Reagent Dispenser. The reaction was initiated by the addition of 20 μM of the test compounds using an Echo 550 acoustic dispenser (Labcyte). Fluorescence was monitored with a SynergyNeo microplate reader (BioTek) using excitation and emission wavelengths of 365 and 450 nm, respectively, for approximately 45 min alongside appropriate negative and positive controls. […] The hits remaining after the primary and confirmatory screening were examined further to identify possible PAINS, which could result in false-positive results ([91]). Further refinement of the lead candidates was also conducted by assessing the fluorescence quenching potential of lead compound hits by assaying the quenching potential of different compound concentrations (10.1 μM and/or 50.5 μM) against the fluorescence of 4-methylumbeliferone (247 μM) to reveal any potential false positives that were not actually because of AiWssI^ΔN activity. All fluorescence readings were normalized using the following equation to determine the percentage of quenching ([92]): NormalizedFlouresence=Fobs−μFmin/μFmax−μFminx100% In the aforementioned formula, Fobs is the sample fluorescence value, μFmin is the mean fluorescence value of the negative controls, and μFmax is the mean fluorescence value of the positive controls.
(§2) All inhibitor compounds for confirmatory assays were purchased from Enamine Ltd, with the exception of compound 1 (Santa Cruz Biotechnology, Inc), Compounds 2 and 7 (Molport via Maybridge Ltd and Vitas M Chemical Ltd, respectively) and compound 6 (Mcule, Inc). The dose–response curves were generated using either CDD Vault Analysis Software (Collaborative Drug Discovery, Inc) or GraphPad Prism, version 8.4.3. Inhibition constants (Ki) were calculated using the Cheng–Prusoff equation for competitive inhibition that is calculated using the KM of the uninhibited enzyme, the substrate concentration (S) at which the IC50 values were calculated, and the IC50 value of the inhibitor ([92]): Ki=IC50/(S/KM+1)

AiWssI^ΔN [3] = target: T1, AiWssI^ΔN; assay: Follow-up standard MU-Ac esterase assay (dose-response); format: biochemical
Procedure: The fluorescence substrate, MU-Ac, was also tested as a substrate of WssI^ΔN for its amenability to the planned high-throughput analyses (see later). Reaction setups were exactly the same as that for pNP-Ac, with the exceptions of the assay buffer (50 mM sodium phosphate, 150 mM NaCl, 1 mM DTT, pH 7), MU-Ac as the acetyl donor (final concentration of 0.5 mM along with 5% [v/v] dimethyl sulfoxide, as this was the solvent for MU-Ac), and the assay was performed in fluorescence compatible microplates (Grenier BioOne) and monitored with excitation and emission wavelengths of 365 and 450 nm, respectively for 60 min.
as §2

[4] = target: serine/threonine phosphatase calcineurin; parameters: method as in PMID 9763224; details: p-nitrophenyl phosphate as a substrate; cited from earlier work

T1 sequence (A0A6J5I893 entry or part of it, stated change not applied): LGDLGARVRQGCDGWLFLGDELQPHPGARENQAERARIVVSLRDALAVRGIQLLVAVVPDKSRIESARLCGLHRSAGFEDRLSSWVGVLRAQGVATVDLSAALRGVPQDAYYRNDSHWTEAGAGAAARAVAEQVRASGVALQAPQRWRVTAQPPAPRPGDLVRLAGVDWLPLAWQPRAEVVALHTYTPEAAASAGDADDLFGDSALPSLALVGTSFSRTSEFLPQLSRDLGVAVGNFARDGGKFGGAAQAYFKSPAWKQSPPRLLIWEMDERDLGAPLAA

## CC(C)C[C@H](NC(=O)[C@H]1O[C@@H]1C(=O)O)C(=O)NCCCCN=C(N)N [E-64]
AiWssI^ΔN [1]
  Residual activity AiWssI^ΔN: 130.8 ± 9.1%
PfWssI^ΔN
  Residual activity PfWssI^ΔN: 107.8 ± 10.8%

## CS(=O)(=O)F [MSF, methanesulfonyl fluoride]
AiWssI^ΔN [1]
  Residual activity AiWssI^ΔN: 95.0 ± 6.2%
PfWssI^ΔN
  Residual activity PfWssI^ΔN: 112.1 ± 4.4%

## N#CC(C#N)=C(N)/C(C#N)=C/c1ccc(O)cc1 [Compound 1, (3Z)-2-Amino-3-[(4-hydroxyphenyl)-methylidene]prop-1-ene-1,1,3-tricarbonitrile]
AiWssI^ΔN [2]
  IC50: 10.1 µM
AiWssI^ΔN [3]; MU-Ac (0.5 mM) as esterase substrate, read-out: Second MU-Ac IC50
  IC50: 28.4 µM
AiWssI^ΔN [3]; MU-Ac as esterase substrate, Cheng-Prusoff, competitive inhibition, read-out: Second MU-Ac Ki
  Ki: 15.1 µM
[4]
  IC50: 30 µM
